Assay results: PubChem BioAssay AID489041 (Sanford-Burnham Center for Chemical Genomics, 2010)
The source made the active and inactive calls. The rule behind the calls is not given here.

Test system: HEK-293T NF-kB luciferase reporter counterscreen, luminescence
Assay: NF-kB reporter inhibition in HEK-293T, dose response, counter-screen for T-cell antigen receptor NF-kB inhibitors, HEK-293T cells, luminescence (AID 489041)

| SMILES | IC50 |
| --- | --- |
| CCOC(=O)C1CCN(S(=O)(=O)c2c(Cl)ccc3nonc23)CC1 | 10.7 µM |
| CCOC(=O)c1[nH]c(C)c(C(=O)Nc2ccccc2C)c1C | 67.3 µM (inactive) |
| Cc1ccc(S(=O)(=O)/N=C2\C=C(Nc3ccc(O)cc3)C(=O)c3ccccc32)cc1 | 0.78 µM |
| CCCOc1ccc(/C=N/Nc2cc(N3CCOCC3)ncn2)c(O)c1 | 0.38 µM |
| COc1cc(-c2noc(C)c2/C=C/c2ccc(OC(C)=O)cc2)cc(OC)c1OC | 2.78 µM |
| CCOC(=O)C(C)Oc1cccc2c(=O)n(CC(=O)NCc3ccc(F)cc3)ccc12 (configuration not stated) | 9.67 µM |
| COc1ccc(C)c(Cn2c(-c3nonc3N)nc3ccccc32)c1 | 1.84 µM |
| COc1ccc(Nc2nc(-c3sc(C)nc3C)cs2)cc1 | 6.91 µM |
| O=C(NCc1cccs1)C1CCN(c2ccc(S(=O)(=O)N3CCOCC3)cc2Cl)CC1 | 8.56 µM |
| COc1ccc2c(c1)C(=O)N1[C@H]3c4cc(Br)ccc4OC[C@@H]3[C@H](c3ccccc3)[C@]1(C)C(=O)N2 | > 80 µM (inactive) |
| O=C(c1ccccc1)c1nn(-c2ccc(Cl)cc2)c(=O)cc1C(F)(F)F | 5 µM |
| Cc1cc2c(cc1C)C(c1ccccc1OC(C)C)CC(=O)N2 (configuration not stated) | 13.3 µM |
| Cc1noc(C)c1CSc1nc2ccccc2c(=O)n1-c1ccccc1 | 9.04 µM |
| CCOC(=O)c1[nH]c(C)c(C(=O)Nc2ccc(C)cc2C)c1C | 46.1 µM (inactive) |
| Cc1ccc(Nc2nc(-c3c(C)nc4ccccn34)cs2)cc1 | 0.59 µM |
| CC[C@@]1(O)C(=O)OCc2c1cc1n(c2=O)Cc2cc3c(N)cccc3nc2-1 | 6.02 µM |
| COc1ccc(N(C(=O)c2ccccc2C)S(=O)(=O)c2cccs2)cc1 | > 80 µM (inactive) |
| COc1ccccc1N1CCN(C(=O)c2ccc(-c3ccc(Cl)cc3)o2)CC1 | 10.1 µM |
| CCCCC(=O)NC(c1ccc(N(CC)CC)cc1)c1ccc2cccnc2c1O (configuration not stated) | > 80 µM (inactive) |
| CCCC(=O)NC(c1ccc(N(C)C)cc1)c1ccc2cccnc2c1O (configuration not stated) | > 80 µM (inactive) |
| O=S(=O)(Nc1ccc(F)cc1Cl)c1ccc(-c2cnc(C3CC3)o2)cc1 | 1.78 µM |

| SMILES | IC50 |
| --- | --- |
| O=C(Nc1ccc(S(=O)(=O)Nc2ccccc2)cc1)c1ccc(CN2CCOCC2)cc1 | 5.23 µM |
| N#C/C(=C\c1ccc(OCc2ccc(C(=O)O)cc2)cc1)C(=O)N1CCOCC1 | 4.51 µM |
| O=C(COc1ccc2c(-c3ccccc3)cc(=O)oc2c1)Nc1cccnc1 | 0.26 µM |
| Cc1ccc(NC(=O)c2cc3ccccc3oc2=O)cc1S(=O)(=O)N(C)C | < 0.16 µM |
| COc1ccc(S(=O)(=O)N2N=C(C)Oc3ccccc3C2=O)cc1 | 29.9 µM (inactive) |
| Cc1ccc(-c2cc3c(N=O)c4ccccc4c-3n[nH]2)cc1 | 0.88 µM |
| C#Cc1ccc([C@@H]2C=C(C(=O)N3CCN(Cc4ccccc4)CC3)O[C@H](OCCCCO)C2)cc1 | 2.32 µM |
| CCOC(=O)c1[nH]c(C)c(C(=O)Nc2cc(Cl)ccc2C)c1C | 4.39 µM |
| O=C(Nc1ccc(C(F)(F)F)cc1)c1cccn(Cc2ccc3c(c2)OC(F)(F)O3)c1=O | 22.5 µM (inactive) |
| CCCCn1c2c(c(=N)c3c1CCC3)CCC2 | 8.5 µM |
| Oc1ccc2ccccc2c1/C=N/Nc1nnc(-c2ncc[nH]2)c2ccccc12 | 0.52 µM |
| O=C(NNc1ccnc2cc(Cl)ccc12)C1CCCCC1 | 0.33 µM |
| CCOC(=O)N=Nc1c2ccccc2c2nc3no[nH]c3nc12 | 0.52 µM |
| Cc1cccc(N2CCN(C(=O)c3ccc(CS(=O)(=O)c4ccccc4C)o3)CC2C)c1 (configuration not stated) | 2.34 µM |
| CC(C)c1oc(=O)cc2c1[C@@H](O)[C@H]1OC(=O)[C@@]3(C)CC[C@@H](O)[C@@]2(C)C13 (some centres not stated) | 4.59 µM |
| Cn1ncc2c(N3CCN(c4ccc(Cl)c(Cl)c4)CC3)ncnc21 | 1.29 µM |
| C=CCn1c(SCc2c(C)noc2C)nc2ccccc2c1=O | 2.82 µM |
| Cc1ccc(C)c(N=Nc2ccc(O)c3ncccc23)c1 | 21 µM (inactive) |
| CCN(CC)c1ccc(-c2nn3c(-c4ccccc4OC)nnc3s2)cc1 | 1.87 µM |
| CC(=O)NC(c1ccc2ccccc2c1)c1ccc2cccnc2c1O (configuration not stated) | 41.3 µM (inactive) |
| COC(=O)c1cnc(Oc2ccc(NC(=O)NC(=O)c3c(F)cccc3Cl)cc2)cc1C(F)(F)F | 25.8 µM (inactive) |
